From publication PMC10925993, “6-Aryl-4-cycloamino-1,3,5-triazine-2-amines: synthesis, antileukemic activity, and 3D-QSAR modelling” (RSC Advances, 2024)
Like-named read-outs stand apart in the source and are kept apart here.

Legend:
Jurkat T cells [1] = assay: Antiproliferative screening at 10 μM, MTS assay; assay type: cell-based, human; details: for viability at 10 µM: Homo sapiens, Jurkat T cells, 72 h after treatment, MTS, mean of three independent experiments, read-out: Cell viability (%); for Antiproliferative activity against Jurkat T cells (in words): screening concentration 10 μM, 72 h
Procedure, shortened: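 Compounds were added to Jurkat T cells seeded 24 h earlier (2 × 10^3 cells/well) and left for 72 h. Sigmoidal curve fitting provided GI50.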

Jurkat T cells [2] = assay: Inhibition of Jurkat T cell growth (GI50), MTS assay; assay type: cell-based; details: Homo sapiens
Protocol: These compounds were selected for further testing to estimate their 50% growth inhibition (GI50) value. Standard antileukemic drugs mercaptopurine, methotrexate and cytarabine were chosen as positive controls.
An MTS (3-(4,5-dimethylthiazol-2-yl)-5-(3-carboxymethoxyphenyl)-2-(4-sulfophenyl)-2H-tetrazolium inner salt) assay[20] was used to assess the leukemic cell viability. Jurkat T cells (human leukemic T cell, clone E6-1) from American Type Culture Collection (ATCC) were cultured in RPMI-1640 medium (Nacalai Tesque, Japan) supplemented with 10% v/v fetal bovine serum (FBS) (Biosera, France). The cells were maintained at 37 °C in a humidified 5% CO2 incubator (Thermo Fisher, USA). A total of 2 × 10^3 cells per 100 μL cell culture media were seeded into each well of a 96-well plate and incubated for 24 h. Then, tested compounds or reference drugs [6-mercaptopurine (Merck Millipore, Germany), methotrexate (Merck Millipore, Germany) and cytarabine (Merck Millipore, Germany)] were added, followed by incubation for 72 h. After that, a mixture of MTS (Sigma Aldrich, USA) and phenazine methosulfate (PMS) (Nacalai Tesque, Japan) were added to each well, followed by another incubation for 1 h to 4 h at 37 °C. The absorbance in each well was measured at 490 nm using a microplate reader (Tecan NanoQuant Infinite M200 Pro, Austria). The percentage of cell viability was estimated by comparing absorbance in wells with the treated and untreated (vehicle control) cells using the following formula: ODtreated/ODuntreated × 100%. All experiments were performed in triplicate and repeated in three independent experiments. The GI50 values were calculated using sigmoidal concentration-response curves generated by the GraphPad Prism 8 program.[21]

[3] = GI50 against Jurkat T cells converted to negative logarithmic scale, read-out: Experimental pGI50 (converted)
[4] = concentration required to inhibit Jurkat T cell growth by 50%, 72 h, MTS, mean of three independent experiments, read-out: GI50 ± SEM

Nc1nc(-c2ccc(OC(F)(F)F)cc2)nc(N2CCCCC2)n1 [9{2,12}, 6-[4-(Trifluoromethoxy)phenyl]-4-piperidino-1,3,5-triazine-2-amine]
viability at 10 µM (Jurkat T cells [1]): 12% | Antiproliferative activity against Jurkat T cells (in words) (Jurkat T cells [1]): effectively inhibited Jurkat T cell growth | GI50 (Jurkat T cells [2]; [3]): 10.7 µM | GI50 (Jurkat T cells [2]; [4]): 10.8 ± 0.13 µM | melting point: 136 to 137 °C

Nc1nc(-c2cccc(Oc3ccccc3)c2)nc(N2CCCCC2)n1 [9{2,13}, 4-Piperidino-6-(3-phenoxyphenyl)-1,3,5-triazine-2-amine]
viability at 10 µM (Jurkat T cells [1]): 10% | Antiproliferative activity against Jurkat T cells (in words) (Jurkat T cells [1]): effectively inhibited Jurkat T cell growth | GI50 (Jurkat T cells [2]; [3]): 6.92 µM | GI50 (Jurkat T cells [2]; [4]): 6.88 ± 1.22 µM | melting point: 125 to 126 °C

Nc1nc(-c2cccc(OCc3ccccc3)c2)nc(N2CCCCC2)n1 [9{2,14}, 6-[3-(Benzyloxy)phenyl]-4-piperidino-1,3,5-triazine-2-amine]
viability at 10 µM (Jurkat T cells [1]): 8% | Antiproliferative activity against Jurkat T cells (in words) (Jurkat T cells [1]): effectively inhibited Jurkat T cell growth | GI50 (Jurkat T cells [2]; [3]): 7.76 µM | GI50 (Jurkat T cells [2]; [4]): 7.68 ± 0.11 µM | melting point: 157 to 158 °C

CC1CCN(c2nc(N)nc(-c3ccc(C(F)(F)F)cc3)n2)CC1 [9{3,11}, 6-[4-(Trifluoromethyl)phenyl]-4-(4-methylpiperidino)-1,3,5-triazine-2-amine]
viability at 10 µM (Jurkat T cells [1]): 11% | Antiproliferative activity against Jurkat T cells (in words) (Jurkat T cells [1]): effectively inhibited Jurkat T cell growth | GI50 (Jurkat T cells [2]; [3]): 4.47 µM | GI50 (Jurkat T cells [2]; [4]): 4.51 ± 0.15 µM | melting point: 170 to 171 °C

CC1CCN(c2nc(N)nc(-c3ccc(OC(F)(F)F)cc3)n2)CC1 [9{3,12}, 6-[4-(Trifluoromethoxy)phenyl]-4-(4-methylpiperidino)-1,3,5-triazine-2-amine]
viability at 10 µM (Jurkat T cells [1]): 5% | Antiproliferative activity against Jurkat T cells (in words) (Jurkat T cells [1]): effectively inhibited Jurkat T cell growth | GI50 (Jurkat T cells [2]; [3]): 3.24 µM | GI50 (Jurkat T cells [2]; [4]): 3.23 ± 0.88 µM | melting point: 152 to 153 °C

CC1CCN(c2nc(N)nc(-c3cccs3)n2)CC1 [9{3,18}, 4-(4-Methylpiperidino)-6-(2-thienyl)-1,3,5-triazine-2-amine]
viability at 10 µM (Jurkat T cells [1]): 35% | GI50 (Jurkat T cells [2]; [3]): 28.2 µM | GI50 (Jurkat T cells [2]; [4]): 28.2 ± 1.03 µM | melting point: 155 to 156 °C

CN1CCN(c2nc(N)nc(-c3ccc(C(C)(C)C)cc3)n2)CC1 [9{4,7}, 6-[4-(tert-Butyl)phenyl]-4-(4-methylpiperazino)-1,3,5-triazine-2-amine]
viability at 10 µM (Jurkat T cells [1]): 16% | Antiproliferative activity against Jurkat T cells (in words) (Jurkat T cells [1]): effectively inhibited Jurkat T cell growth | GI50 (Jurkat T cells [2]; [3]): 21.9 µM | GI50 (Jurkat T cells [2]; [4]): 21.8 ± 1.1 µM

Nc1nc(-c2ccccc2)nc(N2CCc3ccccc3C2)n1 [9{6,1}]
viability at 10 µM (Jurkat T cells [1]): 12% | GI50 (Jurkat T cells [2]; [3]): 1.95 µM | GI50 (Jurkat T cells [2]; [4]): 1.95 ± 0.25 µM

Nc1nc(-c2ccc(Cl)cc2)nc(N2CCc3ccccc3C2)n1 [9{6,4}, 6-(4-Chlorophenyl)-4-(3,4-dihydroisoquinolin-2(1H)-yl)-1,3,5-triazine-2-amine]
viability at 10 µM (Jurkat T cells [1]): 2% | GI50 (Jurkat T cells [2]; [3]): 3.31 µM | GI50 (Jurkat T cells [2]; [4]): 3.3 ± 0.65 µM | melting point: 183 to 184 °C

Cc1cccc(-c2nc(N)nc(N3CCc4ccccc4C3)n2)c1 [9{6,5}, 6-(3-Methylphenyl)-4-(3,4-dihydroisoquinolin-2(1H)-yl)-1,3,5-triazine-2-amine]
viability at 10 µM (Jurkat T cells [1]): 2% | GI50 (Jurkat T cells [2]; [3]): 1.15 µM | GI50 (Jurkat T cells [2]; [4]): 1.14 ± 0.13 µM | melting point: 145 to 146 °C

Cc1ccc(-c2nc(N)nc(N3CCc4ccccc4C3)n2)cc1 [9{6,6}, 6-(4-Methylphenyl)-4-(3,4-dihydroisoquinolin-2(1H)-yl)-1,3,5-triazine-2-amine]
viability at 10 µM (Jurkat T cells [1]): 4% | GI50 (Jurkat T cells [2]; [3]): 1.78 µM | GI50 (Jurkat T cells [2]; [4]): 1.79 ± 0.58 µM | melting point: 166 to 167 °C

CC(C)(C)c1ccc(-c2nc(N)nc(N3CCc4ccccc4C3)n2)cc1 [9{6,7}, 6-[4-(tert-Butyl)phenyl]-4-(3,4-dihydroisoquinolin-2(1H)-yl)-1,3,5-triazine-2-amine]
viability at 10 µM (Jurkat T cells [1]): 1% | GI50 (Jurkat T cells [2]; [3]): 2.45 µM | GI50 (Jurkat T cells [2]; [4]): 2.43 ± 0.57 µM | melting point: 162 to 164 °C

COc1ccc(-c2nc(N)nc(N3CCc4ccccc4C3)n2)cc1 [9{6,9}, 6-(4-Methoxyphenyl)-4-(3,4-dihydroisoquinolin-2(1H)-yl)-1,3,5-triazine-2-amine]
viability at 10 µM (Jurkat T cells [1]): 14% | GI50 (Jurkat T cells [2]; [3]): 29.5 µM | GI50 (Jurkat T cells [2]; [4]): 29.6 ± 2.2 µM | melting point: 165 to 166 °C

Nc1nc(-c2ccc(C(F)(F)F)cc2)nc(N2CCc3ccccc3C2)n1 [9{6,11}, 6-[4-(Trifluoromethyl)phenyl]-4-(3,4-dihydroisoquinolin-2(1H)-yl)-1,3,5-triazine-2-amine]
viability at 10 µM (Jurkat T cells [1]): 3% | GI50 (Jurkat T cells [2]; [3]): 3.24 µM | GI50 (Jurkat T cells [2]; [4]): 3.23 ± 0.16 µM | melting point: 181 to 182 °C

Nc1nc(-c2ccc(OC(F)(F)F)cc2)nc(N2CCc3ccccc3C2)n1 [9{6,12}, 6-[4-(Trifluoromethoxy)phenyl]-4-(3,4-dihydroisoquinolin-2(1H)-yl)-1,3,5-triazine-2-amine]
viability at 10 µM (Jurkat T cells [1]): 3% | GI50 (Jurkat T cells [2]; [3]): 1.17 µM | GI50 (Jurkat T cells [2]; [4]): 1.18 ± 0.22 µM | melting point: 119 to 120 °C

Nc1nc(-c2cccc(Oc3ccccc3)c2)nc(N2CCc3ccccc3C2)n1 [9{6,13}, 4-(3,4-Dihydroisoquinolin-2(1H)-yl)-6-(3-phenoxyphenyl)-1,3,5-triazine-2-amine]
viability at 10 µM (Jurkat T cells [1]): 4% | GI50 (Jurkat T cells [2]; [3]): 1.55 µM | GI50 (Jurkat T cells [2]; [4]): 1.54 ± 0.66 µM | melting point: 128 to 129 °C

Nc1nc(-c2cccc(OCc3ccccc3)c2)nc(N2CCc3ccccc3C2)n1 [9{6,14}, 6-(3-(Benzyloxy)phenyl)-4-(3,4-dihydroisoquinolin-2(1H)-yl)-1,3,5-triazine-2-amine]
viability at 10 µM (Jurkat T cells [1]): 23% | GI50 (Jurkat T cells [2]; [3]): 6.61 µM | GI50 (Jurkat T cells [2]; [4]): 6.54 ± 0.34 µM | melting point: 143 to 144 °C

COc1ccc(-c2nc(N)nc(N3CCc4ccccc4C3)n2)cc1OC [9{6,16}, 6-(3,4-Dimethoxyphenyl)-4-(3,4-dihydroisoquinolin-2(1H)-yl)-1,3,5-triazin-2-amine]
viability at 10 µM (Jurkat T cells [1]): 23% | GI50 (Jurkat T cells [2]; [3]): 11.7 µM | GI50 (Jurkat T cells [2]; [4]): 11.6 ± 2.12 µM | melting point: 159 to 160 °C

Nc1nc(-c2ccc(F)cc2)nc(N2CCc3ccccc32)n1 [9{7,3}, 6-(4-Fluorophenyl)-4-(indolin-1-yl)-1,3,5-triazine-2-amine]
viability at 10 µM (Jurkat T cells [1]): 35% | GI50 (Jurkat T cells [2]; [3]): 1.91 µM | GI50 (Jurkat T cells [2]; [4]): 1.89 ± 0.48 µM | melting point: 195 to 196 °C

CN(C)c1ccc(-c2nc(N)nc(N3CCc4ccccc43)n2)cc1 [9{7,8}, 6-[4-(N,N-Dimethylamino)phenyl]-4-(indolin-1-yl)-1,3,5-triazine-2-amine]
viability at 10 µM (Jurkat T cells [1]): 30% | GI50 (Jurkat T cells [2]; [3]): 2.14 µM | GI50 (Jurkat T cells [2]; [4]): 2.12 ± 0.97 µM | melting point: 226 to 227 °C

Nc1nc(-c2ccc(OCc3ccccc3)cc2)nc(N2CCc3ccccc32)n1 [9{7,15}, 6-(4-(Benzyloxy)phenyl)-4-(indolin-1-yl)-1,3,5-triazine-2-amine]
viability at 10 µM (Jurkat T cells [1]): 32% | GI50 (Jurkat T cells [2]; [3]): 22.9 µM | GI50 (Jurkat T cells [2]; [4]): 23.07 ± 0.08 µM | melting point: 188 to 189 °C

COc1cc(-c2nc(N)nc(N3CCc4ccccc43)n2)cc(OC)c1OC [9{7,17}, 6-(3,4,5-Trimethoxyphenyl)-4-(indolin-1-yl)-1,3,5-triazine-2-amine]
viability at 10 µM (Jurkat T cells [1]): 10% | GI50 (Jurkat T cells [2]; [3]): 6.76 µM | GI50 (Jurkat T cells [2]; [4]): 6.73 ± 0.43 µM | melting point: 199 to 200 °C

Nc1nc(-c2cccs2)nc(N2CCc3ccccc32)n1 [9{7,18}, 4-(Indolin-1-yl)-6-(2-thienyl)-1,3,5-triazine-2-amine]
viability at 10 µM (Jurkat T cells [1]): 20% | GI50 (Jurkat T cells [2]; [3]): 6.03 µM | GI50 (Jurkat T cells [2]; [4]): 6.03 ± 0.64 µM | melting point: 163 to 164 °C

Nc1ccn([C@@H]2O[C@H](CO)[C@@H](O)[C@@H]2O)c(=O)n1 [Cytarabine, cytarabine, reference compound]
GI50 (Jurkat T cells [2]; [4]): 0.29 ± 0.01 µM

S=c1[nH]cnc2nc[nH]c12 [Mercaptopurine, mercaptopurine, reference compound]
GI50 (Jurkat T cells [2]; [4]): 11.1 ± 4.89 µM
